Test results from US20090123940A1, “MOLECULES INVOLVED IN SYNAPTOGENESIS AND USES THEREFOR” (THE JOHNS HOPKINS UNIVERSITY, priority 2007, published 2009).

How the values were obtained:
[1] = system: NPR cleavage at Site A (TACE); experiment: NPR cleavage assay in transfected HEK293T cells; format: cell-based, rat; settings: PMA 150 nM, cells transfected with NPR
Method: Cleavage Assay HEK293T cells were plated in OptiMEM (Invitrogen, Carlsbad, Calif.) containing 5% FBS onto 6-well dishes at a density of 4×10^5 cells/mL (2 mL/well) 1 day before transfection. Cells were transfected with NPR in pRK5 using LipofectAMINE 2000 (Invitrogen, Carlsbad Calif.). After 24 hr the medium was replaced with serum-free OptiMEM. […] Samples from each well were obtained at specific time points, immediately placed on ice, centrifuged at 15,000 g to remove cell debris, and then treated with 2% β-mercaptoethanol containing loading buffer. At the end of the time course, the cells were lysed with RIPA buffer, centrifuged to remove cell debris, and treated with 2% β-mercaptoethanol in loading buffer. Samples (20 μL of medium or lysate diluted to 1/5) were run on SDS-PAGE gels and analyzed by Western blotting.

[2] = system: NPR-myc and GluR2-HA in COS-7 cells; experiment: Live staining of NPR clusters in transfected COS-7 cells after PMA; format: cell-based
Method: Immunocytochemical staining. Immunocytochemical staining of heterologous cells was performed as described (Xu et al., supra). For PMA-stimulation experiments, PMA (Sigma Cat #: P8139) at (150 nM) was added 90 minutes prior to live staining. Images were viewed and captured using Nikon E800 epifluorescence microscope fitted with a Princeton Instruments CCD camera. For live staining, neurons cultured on coverslips were incubated at 10° C. with the appropriate primary antibodies at the indicated dilutions in conditioned culture medium for 20 min. They were then washed with PBS and fixed with 4% paraformaldehyde/4% sucrose in PBS for 20 min at room temperature. Cells were permeablized with 0.2% Triton X-100 in PBS for 5 min and then blocked in 10% normal goat serum in PBS for 1 hr at room temperature. […] For quantification of the punctate structures (e.g. GluR1), images were thresholded by grey value to differentiate single puncta. Segments of dendrites were selected and number of puncta was calculated per […] of length dendrite. Figures show ratios of calculated mean densities (number of puncta per unit length) from treated/control. Error bars were calculated using SEM and Gaussian error propagation. n=number of measured dendrites. Significance was determined by paired Student's T-test. […]

[3] = system: Narp association with AMPA receptor subunits; experiment: Co-immunoprecipitation of Narp with AMPA receptor subunits in HEK-293 cells; format: cell-based; settings: 1 mM tunicamycin
From the text: Co-immunoprecipitation experiments were used to examine whether Narp is physically associated with AMPA receptors in HEK-293 cells.

Compound | accumulation of LFC-NPR in the medium [1] | NPR distribution on COS-7 cells expressing NPR-myc ([2]; PMA 150 nM, 90 min) | clustering of NPR and GluR2 in COS-7 cells co-transfected with NPR-myc and GluR2-HA ([2]; PMA treated) | association between Narp and AMPA receptor subunits [3]
CCCCCCCCCCCCCC(=O)O[C@@H]1[C@@H](C)[C@@]2(O)[C@@H](C=C(CO)C[C@]3(O)C(=O)C(C)=C[C@@H]23)[C@@H]2C(C)(C)[C@]12OC(C)=O [PMA, phorbol myristate acetate] | increased the accumulation of LFC-NPR in the medium | large clusters of NPR were detected | exhibited co-clusters of NPR and GluR2 | –
tunicamycin | – | – | – | no effect
